Measurements from ChEMBL document CHEMBL3046820, “1,6-Bis[1-(2-chloro-5-thiazolylmethyl)-2-nitroiminoimidazolidin-3-yl]hexane and 1,3,5-tris[1-(6-chloronicotinyl)-2-nitroiminoimidazolidin-3-ylmethyl]benzeneSynthesis and insecticidal and neuroblocking activities in American cockroaches, Periplaneta americana” (2006).

How the values were obtained:
Type in all cases: functional
[1] = tested on: Periplaneta americana; assay: Insecticidal activity against adult male Periplaneta americana (American cockroach) dosed through injection into abdomen assessed as mortality measured 24 hr post dose
[2] = tested on: Periplaneta americana; assay: Insecticidal activity against adult male Periplaneta americana (American cockroach) dosed through injection into abdomen assessed as mortality measured 24 hr post dose pre-treated with 50 ug metabolic inhibitor PB and 50 ug NIA 1 hr before compound injection
[3] = tested on: Abdominal central nerve cord; assay: Neuroblocking activity in adult male Periplaneta americana (American cockroach) abdominal central nerve cords containing fifth and sixth ganglia assessed as neuroblocking concentration to supress frequncy below 10 counts/30 sec measured at 22 to 25 degC

Question: Which MLD [1] does the source give for `O=[N+]([O-])/N=C1/N(CCCCCCN2CCN(Cc3cnc(Cl)s3)/C2=N/[N+](=O)[O-])CCN1Cc1cnc(Cl)s1` here?
Answer: The MLD was 8.9 nmol.

Question: What about the MLD [2] of the same molecule?
Answer: Its MLD is 1.1 nmol.

Question: With `O=[N+]([O-])/N=C(/NCCCCCCN/C(=N\[N+](=O)[O-])NCc1ccc(Cl)nc1)NCc1ccc(Cl)nc1` as the molecule, how does the MLD [1] read?
Answer: The MLD was >129 nmol.

Question: What about the BC [3] of the same molecule?
Answer: The BC was 26.3 µM.

Question: What about the MLD [2] of the same molecule?
Answer: Its MLD is 25.7 nmol.

Question: `O=[N+]([O-])/N=C(/NCCCCCCN/C(=N\[N+](=O)[O-])NCc1cnc(Cl)s1)NCc1cnc(Cl)s1` was tested. Which MLD [1] did it give?
Answer: Its MLD is >134 nmol.

Question: And the BC [3]?
Answer: Its BC is 14.8 µM.

Question: And the MLD [2]?
Answer: The MLD was 85.1 nmol.

Question: Which results are given for `O=[N+]([O-])/N=C1\N(Cc2ccc(Cl)nc2)CCN1Cc1cccc(CN2CCN(Cc3ccc(Cl)nc3)/C2=N/[N+](=O)[O-])c1CN1CCN(Cc2ccc(Cl)nc2)/C1=N\[N+](=O)[O-]`?
Answer: MLD [1]: 34 nmol; BC [3]: 100 µM; MLD [2]: 3.4 nmol

Question: Which results are given for `O=[N+]([O-])/N=C1\N(Cc2ccc(Cl)nc2)CCN1Cc1cccc(CN2CCN(Cc3ccc(Cl)nc3)/C2=N/[N+](=O)[O-])c1`?
Answer: MLD [1]: 20 nmol; MLD [2]: 1 nmol

Question: `O=[N+]([O-])/N=C1/N(CCCCCCN2CCN(Cc3ccc(Cl)nc3)/C2=N/[N+](=O)[O-])CCN1Cc1ccc(Cl)nc1` [Hexamethylene 1,6-bis-imadacloprid] was tested. Which MLD [1] did it give?
Answer: The MLD was 2.2 nmol.

Question: What about the BC [3] of the same molecule?
Answer: Its BC is 3.7 µM.

Question: What about the MLD [2] of the same molecule?
Answer: The MLD was 0.29 nmol.

Question: Which MLD [1] does the source give for `O=[N+]([O-])/N=C1\NCCN1Cc1ccc(Cl)nc1` [IMIDACLOPRID] here?
Answer: Its MLD is 1.1 nmol.

Question: And the BC [3]?
Answer: Its BC is 2.3 µM.

Question: And the MLD [2]?
Answer: Its MLD is 0.071 nmol.
